What was measured:
Assay in all cases: KINOMEscan competition binding
Details in all cases: compound 10.0 µM
[1] = system: ABL1 (human), P00519 [F317I]
[2] = system: ABL1 (human), P00519 [F317L]
AKT2 (human) = AKT2 (human) (UniProt P31751)
BTK (human) = BTK (human) (UniProt Q06187)
CAMK1D (human) = CAMK1D (human) (UniProt Q8IU85)
CAMK2D (human) = CAMK2D (human) (UniProt Q13557)
CDC42BPB (human) = CDC42BPB (human) (UniProt Q9Y5S2)
CDK5 (human) = CDK5 (human) (UniProt Q00535)
CDKL2 (human) = CDKL2 (human) (UniProt Q92772)
CHEK2 (human) = CHEK2 (human) (UniProt O96017)
CHEK2 (human), sequence (O96017 whole entry, looked up): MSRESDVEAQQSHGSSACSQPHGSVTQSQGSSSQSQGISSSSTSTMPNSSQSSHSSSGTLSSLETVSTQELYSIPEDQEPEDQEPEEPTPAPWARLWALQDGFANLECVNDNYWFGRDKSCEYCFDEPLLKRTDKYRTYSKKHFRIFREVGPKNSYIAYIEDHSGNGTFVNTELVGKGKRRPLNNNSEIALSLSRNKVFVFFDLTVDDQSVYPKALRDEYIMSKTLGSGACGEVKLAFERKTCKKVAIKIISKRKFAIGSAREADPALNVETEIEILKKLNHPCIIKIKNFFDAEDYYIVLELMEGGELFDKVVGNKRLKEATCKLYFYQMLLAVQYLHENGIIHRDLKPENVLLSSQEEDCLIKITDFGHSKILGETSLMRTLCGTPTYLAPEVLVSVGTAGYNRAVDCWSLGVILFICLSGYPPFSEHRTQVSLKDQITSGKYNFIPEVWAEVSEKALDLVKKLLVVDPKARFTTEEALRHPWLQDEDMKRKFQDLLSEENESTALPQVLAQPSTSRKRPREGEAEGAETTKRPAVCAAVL

[3] = system: EGFR (human), P00533 [L861Q]
EPHA2 (human) = EPHA2 (human) (UniProt P29317)
EPHA4 (human) = EPHA4 (human) (UniProt P54764)
EPHB2 (human) = EPHB2 (human) (UniProt P29323)
FER (human) = FER (human) (UniProt P16591)
[4] = system: FGFR3 (human), P22607 [G697C]
IRAK3 (human) = IRAK3 (human) (UniProt Q9Y616)
[5] = molecular target: JAK2 JH1 catalytic (human) (UniProt O60674)
JAK2 JH1 catalytic (human), sequence (O60674 whole entry, looked up): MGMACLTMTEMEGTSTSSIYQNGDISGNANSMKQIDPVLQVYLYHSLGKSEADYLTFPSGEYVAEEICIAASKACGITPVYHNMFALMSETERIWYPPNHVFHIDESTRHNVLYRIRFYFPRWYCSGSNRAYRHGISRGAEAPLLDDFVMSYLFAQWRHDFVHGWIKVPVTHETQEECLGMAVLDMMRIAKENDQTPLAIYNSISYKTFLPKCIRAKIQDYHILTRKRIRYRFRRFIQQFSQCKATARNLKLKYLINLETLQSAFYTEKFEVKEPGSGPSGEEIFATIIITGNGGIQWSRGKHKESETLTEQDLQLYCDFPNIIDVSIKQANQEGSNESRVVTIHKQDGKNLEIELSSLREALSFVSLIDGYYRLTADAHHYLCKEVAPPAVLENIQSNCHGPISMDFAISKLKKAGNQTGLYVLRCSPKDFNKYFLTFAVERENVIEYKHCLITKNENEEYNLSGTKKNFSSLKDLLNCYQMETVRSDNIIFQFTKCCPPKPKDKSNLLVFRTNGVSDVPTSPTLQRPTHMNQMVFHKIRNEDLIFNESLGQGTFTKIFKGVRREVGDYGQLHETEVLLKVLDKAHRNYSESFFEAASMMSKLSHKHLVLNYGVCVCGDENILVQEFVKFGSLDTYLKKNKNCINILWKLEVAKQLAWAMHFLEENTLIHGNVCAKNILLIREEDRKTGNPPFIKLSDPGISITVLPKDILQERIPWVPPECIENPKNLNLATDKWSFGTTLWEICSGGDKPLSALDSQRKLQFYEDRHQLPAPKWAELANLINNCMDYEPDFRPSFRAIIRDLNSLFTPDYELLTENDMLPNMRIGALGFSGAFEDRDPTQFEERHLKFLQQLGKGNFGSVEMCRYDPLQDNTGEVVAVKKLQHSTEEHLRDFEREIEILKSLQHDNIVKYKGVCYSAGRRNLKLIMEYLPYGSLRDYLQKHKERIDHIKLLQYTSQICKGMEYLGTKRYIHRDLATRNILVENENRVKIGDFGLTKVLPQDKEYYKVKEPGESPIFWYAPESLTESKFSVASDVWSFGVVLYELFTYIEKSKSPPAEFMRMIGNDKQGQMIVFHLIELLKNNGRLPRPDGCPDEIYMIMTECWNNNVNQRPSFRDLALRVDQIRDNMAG

LATS2 (human) = LATS2 (human) (UniProt Q9NRM7)
LIMK2 (human) = LIMK2 (human) (UniProt P53671)
MAP3K10 (human) = MAP3K10 (human) (UniProt Q02779)
MAP3K11 (human) = MAP3K11 (human) (UniProt Q16584)
MAP4K1 (human) = MAP4K1 (human) (UniProt Q92918)
MAPKAPK5 (human) = MAPKAPK5 (human) (UniProt Q8IW41)
MAPKAPK5 (human), sequence (Q8IW41 whole entry, looked up): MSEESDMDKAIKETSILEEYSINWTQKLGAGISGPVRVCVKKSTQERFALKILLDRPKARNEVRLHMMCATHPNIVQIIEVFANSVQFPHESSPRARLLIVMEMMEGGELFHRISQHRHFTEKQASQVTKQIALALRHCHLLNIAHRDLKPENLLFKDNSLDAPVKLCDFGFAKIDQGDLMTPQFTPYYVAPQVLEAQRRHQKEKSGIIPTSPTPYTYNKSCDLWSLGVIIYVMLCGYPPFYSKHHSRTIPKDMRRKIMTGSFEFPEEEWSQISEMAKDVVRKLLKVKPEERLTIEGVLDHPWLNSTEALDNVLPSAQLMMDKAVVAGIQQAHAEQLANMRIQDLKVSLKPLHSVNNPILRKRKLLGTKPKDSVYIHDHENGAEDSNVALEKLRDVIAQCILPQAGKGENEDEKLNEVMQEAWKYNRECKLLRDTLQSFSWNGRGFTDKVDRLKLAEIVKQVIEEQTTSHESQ

MYO3A (human) = MYO3A (human) (UniProt Q8NEV4)
NEK6 (human) = NEK6 (human) (UniProt Q9HC98)
NEK6 (human), sequence (Q9HC98 whole entry, looked up): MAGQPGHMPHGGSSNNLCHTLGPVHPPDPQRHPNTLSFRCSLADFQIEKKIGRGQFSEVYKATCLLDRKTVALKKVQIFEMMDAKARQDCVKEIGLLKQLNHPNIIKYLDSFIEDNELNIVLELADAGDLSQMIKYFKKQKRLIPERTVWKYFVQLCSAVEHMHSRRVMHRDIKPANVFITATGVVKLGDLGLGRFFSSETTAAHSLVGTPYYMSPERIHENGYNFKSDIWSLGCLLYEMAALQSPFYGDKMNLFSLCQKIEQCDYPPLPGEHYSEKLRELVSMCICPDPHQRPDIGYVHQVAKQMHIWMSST

NLK (human) = NLK (human) (UniProt Q9UBE8)
PAK6 (human) = PAK6 (human) (UniProt Q9NQU5)
PAK7 (human) = PAK7 (human) (UniProt Q9P286)
[6] = system: PIK3CA (human), P42336 [E545K]
PIK3CD (human) = PIK3CD (human) (UniProt O00329)
PRKAA1 (human) = PRKAA1 (human) (UniProt Q13131)
PRKCH (human) = PRKCH (human) (UniProt P24723)
PTK2B (human) = PTK2B (human) (UniProt Q14289)
SGK110 (human) = SGK110 (human) (UniProt P0C264)
SRC (human) = SRC (human) (UniProt P12931)
STK10 (human) = STK10 (human) (UniProt O94804)
STK38L (human) = STK38L (human) (UniProt Q9Y2H1)
TIE1 (human) = TIE1 (human) (UniProt P35590)
TSSK1B (human) = TSSK1B (human) (UniProt Q9BXA7)
WEE1 (human) = WEE1 (human) (UniProt P30291)
WEE2 (human) = WEE2 (human) (UniProt P0C1S8)

ABL1 (human), P00519 [F317I], sequence (P00519 whole entry F317I, looked up): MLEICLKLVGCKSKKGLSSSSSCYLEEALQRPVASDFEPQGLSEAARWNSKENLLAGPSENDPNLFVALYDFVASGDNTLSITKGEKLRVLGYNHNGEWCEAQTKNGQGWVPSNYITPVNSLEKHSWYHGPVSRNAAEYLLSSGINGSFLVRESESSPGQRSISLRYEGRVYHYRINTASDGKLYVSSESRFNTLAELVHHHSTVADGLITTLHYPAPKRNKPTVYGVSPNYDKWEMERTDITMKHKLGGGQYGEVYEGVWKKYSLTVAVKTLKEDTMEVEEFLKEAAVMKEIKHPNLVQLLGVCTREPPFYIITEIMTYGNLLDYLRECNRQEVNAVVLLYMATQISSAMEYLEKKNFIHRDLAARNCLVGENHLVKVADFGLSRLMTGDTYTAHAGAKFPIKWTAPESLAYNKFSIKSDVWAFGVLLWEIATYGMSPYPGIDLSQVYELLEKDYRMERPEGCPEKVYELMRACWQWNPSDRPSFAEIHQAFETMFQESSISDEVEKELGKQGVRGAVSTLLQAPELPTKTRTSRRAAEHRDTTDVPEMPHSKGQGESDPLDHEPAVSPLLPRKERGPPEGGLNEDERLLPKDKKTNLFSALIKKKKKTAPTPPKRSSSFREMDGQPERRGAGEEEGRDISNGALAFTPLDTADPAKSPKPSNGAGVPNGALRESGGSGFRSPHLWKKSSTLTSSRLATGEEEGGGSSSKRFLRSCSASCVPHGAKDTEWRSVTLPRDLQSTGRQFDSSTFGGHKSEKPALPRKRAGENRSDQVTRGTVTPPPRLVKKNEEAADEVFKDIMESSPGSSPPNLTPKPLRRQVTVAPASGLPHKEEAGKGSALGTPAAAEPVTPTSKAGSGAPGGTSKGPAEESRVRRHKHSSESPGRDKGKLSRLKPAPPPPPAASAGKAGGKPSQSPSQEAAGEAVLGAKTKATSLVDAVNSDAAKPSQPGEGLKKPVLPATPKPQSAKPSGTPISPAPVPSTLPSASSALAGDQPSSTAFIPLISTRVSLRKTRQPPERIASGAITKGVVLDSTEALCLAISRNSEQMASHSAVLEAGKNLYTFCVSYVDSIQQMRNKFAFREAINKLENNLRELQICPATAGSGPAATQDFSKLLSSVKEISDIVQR
BTK (human), sequence (Q06187 whole entry, looked up): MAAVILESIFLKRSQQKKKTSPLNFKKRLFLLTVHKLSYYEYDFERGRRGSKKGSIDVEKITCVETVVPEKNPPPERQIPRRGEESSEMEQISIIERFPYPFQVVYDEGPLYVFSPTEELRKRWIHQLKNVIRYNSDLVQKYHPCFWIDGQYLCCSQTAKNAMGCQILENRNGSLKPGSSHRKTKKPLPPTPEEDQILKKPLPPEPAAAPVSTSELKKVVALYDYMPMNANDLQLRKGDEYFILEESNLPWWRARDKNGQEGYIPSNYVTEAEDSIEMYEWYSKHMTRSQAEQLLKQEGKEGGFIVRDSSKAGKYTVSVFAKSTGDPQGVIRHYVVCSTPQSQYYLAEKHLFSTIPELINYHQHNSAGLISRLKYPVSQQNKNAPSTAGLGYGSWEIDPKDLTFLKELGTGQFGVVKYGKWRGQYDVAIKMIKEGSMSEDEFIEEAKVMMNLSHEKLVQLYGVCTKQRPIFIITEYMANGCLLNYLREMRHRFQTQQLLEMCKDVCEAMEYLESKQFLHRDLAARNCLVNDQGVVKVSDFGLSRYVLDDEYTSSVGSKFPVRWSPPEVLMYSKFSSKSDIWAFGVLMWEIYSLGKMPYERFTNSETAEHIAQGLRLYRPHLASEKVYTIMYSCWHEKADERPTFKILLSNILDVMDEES
CDK5 (human), sequence (Q00535 whole entry, looked up): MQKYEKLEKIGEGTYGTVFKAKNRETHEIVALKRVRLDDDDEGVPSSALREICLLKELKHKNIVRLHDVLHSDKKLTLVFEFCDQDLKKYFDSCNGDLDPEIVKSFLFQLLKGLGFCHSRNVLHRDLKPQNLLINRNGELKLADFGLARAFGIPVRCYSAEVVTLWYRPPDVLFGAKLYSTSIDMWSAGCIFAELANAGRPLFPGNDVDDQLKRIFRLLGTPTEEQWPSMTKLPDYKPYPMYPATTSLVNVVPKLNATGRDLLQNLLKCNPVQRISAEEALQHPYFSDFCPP
CAMK1D (human), sequence (Q8IU85 whole entry, looked up): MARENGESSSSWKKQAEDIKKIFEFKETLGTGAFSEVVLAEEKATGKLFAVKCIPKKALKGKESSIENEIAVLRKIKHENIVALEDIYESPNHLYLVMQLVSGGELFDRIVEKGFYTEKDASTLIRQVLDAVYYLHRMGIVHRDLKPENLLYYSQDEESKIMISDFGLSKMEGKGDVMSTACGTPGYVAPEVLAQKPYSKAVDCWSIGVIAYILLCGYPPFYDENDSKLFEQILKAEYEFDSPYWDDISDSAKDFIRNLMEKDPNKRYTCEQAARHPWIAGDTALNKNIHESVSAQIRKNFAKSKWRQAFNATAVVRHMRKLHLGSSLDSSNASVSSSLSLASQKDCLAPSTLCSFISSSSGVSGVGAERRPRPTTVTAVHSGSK
ABL1 (human), P00519 [F317L], sequence (P00519 whole entry F317L, looked up): as the sequence (P00519 whole entry F317I, looked up) above, with I317L counted along it

In the case of `O=C1NC(=O)/C(=C/c2c[nH]c(=O)c(-c3ccc(N4CCNCC4)nc3)c2)S1`, the kinase still bound, per cent of control [1] is reported as 100%, the kinase still bound, per cent of control [2] is reported as 66% and the kinase still bound, per cent of control (AKT2 (human)) is reported as 100%. The kinase still bound, per cent of control (BTK (human)) was 51%, the kinase still bound, per cent of control (CAMK1D (human)) was 48% and the kinase still bound, per cent of control (CAMK2D (human)) was 59%. It also gave a kinase still bound, per cent of control (CDC42BPB (human)) of 100%, a kinase still bound, per cent of control (CDK5 (human)) of 100% and a kinase still bound, per cent of control (CDKL2 (human)) of 67%. The kinase still bound, per cent of control (CHEK2 (human)) was 70%, the kinase still bound, per cent of control [3] was 69% and the kinase still bound, per cent of control (EPHA2 (human)) was 100%. For the same compound, the kinase still bound, per cent of control (EPHA4 (human)) was 99%, the kinase still bound, per cent of control (EPHB2 (human)) was 71% and the kinase still bound, per cent of control (FER (human)) was 100%. The kinase still bound, per cent of control [4] was 100%, the kinase still bound, per cent of control (IRAK3 (human)) was 100% and the kinase still bound, per cent of control [5] was 14%. For the same compound, the kinase still bound, per cent of control (LATS2 (human)) was 100%, the kinase still bound, per cent of control (LIMK2 (human)) was 82% and the kinase still bound, per cent of control (MAP3K10 (human)) was 100%. It also gave a kinase still bound, per cent of control (MAP3K11 (human)) of 100%, a kinase still bound, per cent of control (MAP4K1 (human)) of 10% and a kinase still bound, per cent of control (MAPKAPK5 (human)) of 84%. For the same compound, the kinase still bound, per cent of control (MYO3A (human)) was 46%, the kinase still bound, per cent of control (NEK6 (human)) was 100% and the kinase still bound, per cent of control (NLK (human)) was 97%. It also gave a kinase still bound, per cent of control (PAK6 (human)) of 17%, a kinase still bound, per cent of control (PAK7 (human)) of 65% and a kinase still bound, per cent of control [6] of 37%. It also gave a kinase still bound, per cent of control (PIK3CD (human)) of 0%, a kinase still bound, per cent of control (PRKAA1 (human)) of 59% and a kinase still bound, per cent of control (PRKCH (human)) of 100%. The kinase still bound, per cent of control (PTK2B (human)) was 100%, the kinase still bound, per cent of control (SGK110 (human)) was 100% and the kinase still bound, per cent of control (SRC (human)) was 100%. The kinase still bound, per cent of control (STK10 (human)) was 33%, the kinase still bound, per cent of control (STK38L (human)) was 92% and the kinase still bound, per cent of control (TIE1 (human)) was 64%. For the same compound, the kinase still bound, per cent of control (TSSK1B (human)) was 2.9%, the kinase still bound, per cent of control (WEE1 (human)) was 91% and the kinase still bound, per cent of control (WEE2 (human)) was 100%.

In the case of `CN1CCN(c2ccc(C(=O)Nc3ncc4c(n3)N(C)c3ccccc3C(=O)N4C)cc2)CC1`, the kinase still bound, per cent of control [1] is reported as 96%, the kinase still bound, per cent of control [2] is reported as 83% and the kinase still bound, per cent of control (AKT2 (human)) is reported as 100%. The kinase still bound, per cent of control (BTK (human)) was 100%, the kinase still bound, per cent of control (CAMK1D (human)) was 100% and the kinase still bound, per cent of control (CAMK2D (human)) was 100%. For the same compound, the kinase still bound, per cent of control (CDC42BPB (human)) was 98%, the kinase still bound, per cent of control (CDK5 (human)) was 100% and the kinase still bound, per cent of control (CDKL2 (human)) was 100%. For the same compound, the kinase still bound, per cent of control (CHEK2 (human)) was 100%, the kinase still bound, per cent of control [3] was 88% and the kinase still bound, per cent of control (EPHA2 (human)) was 100%. It also gave a kinase still bound, per cent of control (EPHA4 (human)) of 97%, a kinase still bound, per cent of control (EPHB2 (human)) of 91% and a kinase still bound, per cent of control (FER (human)) of 72%. It also gave a kinase still bound, per cent of control [4] of 98%, a kinase still bound, per cent of control (IRAK3 (human)) of 92% and a kinase still bound, per cent of control [5] of 6.2%. The kinase still bound, per cent of control (LATS2 (human)) was 100%, the kinase still bound, per cent of control (LIMK2 (human)) was 100% and the kinase still bound, per cent of control (MAP3K10 (human)) was 99%. For the same compound, the kinase still bound, per cent of control (MAP3K11 (human)) was 100%, the kinase still bound, per cent of control (MAP4K1 (human)) was 98% and the kinase still bound, per cent of control (MAPKAPK5 (human)) was 63%. For the same compound, the kinase still bound, per cent of control (MYO3A (human)) was 100%, the kinase still bound, per cent of control (NEK6 (human)) was 100% and the kinase still bound, per cent of control (NLK (human)) was 100%. For the same compound, the kinase still bound, per cent of control (PAK6 (human)) was 100%, the kinase still bound, per cent of control (PAK7 (human)) was 100% and the kinase still bound, per cent of control [6] was 99%. It also gave a kinase still bound, per cent of control (PIK3CD (human)) of 100%, a kinase still bound, per cent of control (PRKAA1 (human)) of 100% and a kinase still bound, per cent of control (PRKCH (human)) of 95%. For the same compound, the kinase still bound, per cent of control (PTK2B (human)) was 100%, the kinase still bound, per cent of control (SGK110 (human)) was 100% and the kinase still bound, per cent of control (SRC (human)) was 100%. The kinase still bound, per cent of control (STK10 (human)) was 100%, the kinase still bound, per cent of control (STK38L (human)) was 100% and the kinase still bound, per cent of control (TIE1 (human)) was 100%. The kinase still bound, per cent of control (TSSK1B (human)) was 100%, the kinase still bound, per cent of control (WEE1 (human)) was 100% and the kinase still bound, per cent of control (WEE2 (human)) was 100%.
